What was measured:
Experiment in all cases: Test F pre-/postemergence plant response
Assay type in all cases: in vivo
Settings in all cases: scale 0 to 100
[1] = system: arrowleaf sida (Sida rhombifolia)
Method in brief: (§1)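 Seeds were sown in silt loam soil and sprayed preemergence; separately, plants at the 1- to 4-leaf stage (2 to 18 cm) received postemergence sprays. Test chemicals were in a non-phytotoxic solvent mixture with surfactant. After 14 to 21 days in a greenhouse, injury was visually rated 0 (no effect) to 100 (complete control) against untreated controls.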

[2] = system: barnyardgrass (Echinochloa crus-galli)
Method in brief: as §1

corn (Zea mays) = system: corn (Zea mays)
Method in brief: as §1

[3] = system: dayflower (Virginia (VA) dayflower, Commelina virginica)
Method in brief: as §1

[4] = system: fall panicum (Panicum dichotomiflorum)
Method in brief: as §1

[5] = system: palmer pigweed (Amaranthus palmeri)
Method in brief: as §1

[6] = system: ragweed (common ragweed, Ambrosia elatior)
Method in brief: as §1

[7] = system: sandbur (southern sandbur, Cenchrus echinatus)
Method in brief: as §1

soybean (Glycine max) = system: soybean (Glycine max)
Method in brief: as §1

[8] = system: waterhemp (common waterhemp, Amaranthus rudis)
Method in brief: as §1

SMILES | Plant response rating, Arrowleaf Sida ([1]; 16 g ai/ha Postemergence) | Plant response rating, Arrowleaf Sida ([1]; 31 g ai/ha Postemergence) | Plant response rating, Arrowleaf Sida ([1]; 62 g ai/ha Postemergence) | Plant response rating, Arrowleaf Sida ([1]; 125 g ai/ha Postemergence) | Plant response rating, Barnyardgrass ([2]; 16 g ai/ha Postemergence) | Plant response rating, Barnyardgrass ([2]; 31 g ai/ha Postemergence) | Plant response rating, Barnyardgrass ([2]; 62 g ai/ha Postemergence) | Plant response rating, Barnyardgrass ([2]; 125 g ai/ha Postemergence) | Plant response rating, Corn (corn (Zea mays); 16 g ai/ha Postemergence) | Plant response rating, Corn (corn (Zea mays); 31 g ai/ha Postemergence) | Plant response rating, Corn (corn (Zea mays); 62 g ai/ha Postemergence) | Plant response rating, Corn (corn (Zea mays); 125 g ai/ha Postemergence) | Plant response rating, Dayflower, VA ([3]; 16 g ai/ha Postemergence) | Plant response rating, Dayflower, VA ([3]; 31 g ai/ha Postemergence) | Plant response rating, Dayflower, VA ([3]; 62 g ai/ha Postemergence) | Plant response rating, Dayflower, VA ([3]; 125 g ai/ha Postemergence) | Plant response rating, Panicum, Fall ([4]; 16 g ai/ha Postemergence) | Plant response rating, Panicum, Fall ([4]; 31 g ai/ha Postemergence) | Plant response rating, Panicum, Fall ([4]; 62 g ai/ha Postemergence) | Plant response rating, Panicum, Fall ([4]; 125 g ai/ha Postemergence) | also measured
Fc1ccc(Oc2ncc(Cl)cn2)c(-c2cc(C(F)(Cl)Cl)on2)c1 [Compound 221] | 80 | 90 | 98 | 98 | 15 | 25 | 30 | 70 | 5 | 10 | 10 | 20 | 60 | 70 | 80 | 80 | 10 | 15 | 40 | 60 | Plant response rating, Pigweed, Palmer ([5]; 16 g ai/ha Postemergence): 85; Plant response rating, Pigweed, Palmer ([5]; 31 g ai/ha Postemergence): 90; Plant response rating, Pigweed, Palmer ([5]; 62 g ai/ha Postemergence): 100; Plant response rating, Pigweed, Palmer ([5]; 125 g ai/ha Postemergence): 100; Plant response rating, Ragweed ([6]; 16 g ai/ha Postemergence): 50; Plant response rating, Ragweed ([6]; 31 g ai/ha Postemergence): 60; Plant response rating, Ragweed ([6]; 62 g ai/ha Postemergence): 70; Plant response rating, Ragweed ([6]; 125 g ai/ha Postemergence): 80; Plant response rating, Sandbur ([7]; 16 g ai/ha Postemergence): 0; Plant response rating, Sandbur ([7]; 31 g ai/ha Postemergence): 0; Plant response rating, Sandbur ([7]; 62 g ai/ha Postemergence): 0; Plant response rating, Sandbur ([7]; 125 g ai/ha Postemergence): 0; Plant response rating, Soybean (soybean (Glycine max); 16 g ai/ha Postemergence): 60; Plant response rating, Soybean (soybean (Glycine max); 31 g ai/ha Postemergence): 95; Plant response rating, Soybean (soybean (Glycine max); 62 g ai/ha Postemergence): 98; Plant response rating, Soybean (soybean (Glycine max); 125 g ai/ha Postemergence): 95; Plant response rating, Waterhemp ([8]; 16 g ai/ha Postemergence): 90; Plant response rating, Waterhemp ([8]; 31 g ai/ha Postemergence): 98; Plant response rating, Waterhemp ([8]; 62 g ai/ha Postemergence): 95; Plant response rating, Waterhemp ([8]; 125 g ai/ha Postemergence): 100
FC(F)c1cc(-c2ccccc2Oc2ncc(Br)cn2)on1 [Compound 212] | 75 | 70 | 85 | 100 | 0 | 0 | 0 | 10 | 0 | 0 | 0 | 0 | 30 | 20 | 40 | 50 | 0 | 0 | 10 | 10 | Plant response rating, Pigweed, Palmer ([5]; 16 g ai/ha Postemergence): 30; Plant response rating, Pigweed, Palmer ([5]; 31 g ai/ha Postemergence): 75; Plant response rating, Pigweed, Palmer ([5]; 62 g ai/ha Postemergence): 100; Plant response rating, Pigweed, Palmer ([5]; 125 g ai/ha Postemergence): 98; Plant response rating, Ragweed ([6]; 16 g ai/ha Postemergence): 20; Plant response rating, Ragweed ([6]; 31 g ai/ha Postemergence): 20; Plant response rating, Ragweed ([6]; 62 g ai/ha Postemergence): 30; Plant response rating, Ragweed ([6]; 125 g ai/ha Postemergence): 50; Plant response rating, Sandbur ([7]; 16 g ai/ha Postemergence): 0; Plant response rating, Sandbur ([7]; 31 g ai/ha Postemergence): 0; Plant response rating, Sandbur ([7]; 62 g ai/ha Postemergence): 0; Plant response rating, Sandbur ([7]; 125 g ai/ha Postemergence): 10; Plant response rating, Soybean (soybean (Glycine max); 16 g ai/ha Postemergence): 50; Plant response rating, Soybean (soybean (Glycine max); 31 g ai/ha Postemergence): 50; Plant response rating, Soybean (soybean (Glycine max); 62 g ai/ha Postemergence): 75; Plant response rating, Soybean (soybean (Glycine max); 125 g ai/ha Postemergence): 95; Plant response rating, Waterhemp ([8]; 16 g ai/ha Postemergence): 90; Plant response rating, Waterhemp ([8]; 31 g ai/ha Postemergence): 90; Plant response rating, Waterhemp ([8]; 62 g ai/ha Postemergence): 95; Plant response rating, Waterhemp ([8]; 125 g ai/ha Postemergence): 100

From patent publication US10131652B2, “Pyrimidinyloxy benzene derivatives as herbicides” (E. I. DU PONT DE NEMOURS AND COMPANY, priority 2014, dated 2018)
